We go through 1 compound from patent US5457101A (priority 1994, dated 1995).

Data set [1] is described as follows: studies using radiolabelled compound, residues in saliva. In kind it is in vivo. As to the method:
For example, in the treatment of adult humans, dosages of from 0.25 to 30 mg, preferably from 1 to 20 mg, per day may be used. A once a day dosage is normally sufficient, although divided doses may be administered. For treatment of gastrointestinal disorders, a dose range of from 1 to 20 mg, preferably 2.5 to 15 mg per day is suitable.

Data set [2] concerns cloned human 5-HT2B receptor. Nature of the data set: [3H]5-HT radioligand binding, cloned human 5-HT2B receptor. To be noted: statement in words only, no value given.

For the compound `Cc1cc2c(s1)Nc1ccccc1N=C2N1CCN(C)CC1` [2-methyl-4-(4-methyl-1-piperazinyl)-10H-thieno-[2,3-b][1,5]benzodiazepine], the “residues of radiolabelled compound in saliva” value in data set [1] is reported as “detected in the saliva”. Moreover, in data set [2], the 5-HT2B receptor activity is given as 5-HT2B receptor activity.
